Assay in all cases: Test A pre-/postemergence greenhouse herbicide test, visual injury rating 0-100
Holding throughout (assay type): in vivo

The subject of test [1] is barnyardgrass (Echinochloa crus-galli). The text has this: (§1) Seeds of plant species selected from barnyardgrass (Echinochloa crus-galli), large (Lg) crabgrass (Digitaria sanguinalis), giant foxtail (Setaria faberii), morningglory (Ipomoea spp.), pigweed (Amaranthus retroflexus), velvetleaf (Abutilon theophrasti), wheat (Triticum aestivum), and corn (Zea mays) were planted into a blend of loam soil and sand and treated preemergence with a directed soil spray using test chemicals formulated in a non-phytotoxic solvent mixture which included a surfactant. At the same time these species were also treated with postemergence applications of test chemicals formulated in the same manner. Plants ranged in height from 2 to 10 cm and were in the one- to two-leaf stage for the postemergence treatment. Treated plants and untreated controls were maintained in a greenhouse for approximately 10 days, after which time all treated plants were compared to untreated controls and visually evaluated for injury. Plant response ratings, summarized in Table A, are based on a 0 to 100 scale where 0 is no effect and 100 is complete control. A dash (-) response means no test result.

The subject of another test is corn (Zea mays).
Excerpt: as §1

Test [2] has as its system giant foxtail (Setaria faberii).
Excerpt: as §1

Test [3] relates to large (Lg) crabgrass (Digitaria sanguinalis).
Excerpt: as §1

For test [4], the system named is morningglory (Ipomoea spp.).
Excerpt: as §1

The subject of test [5] is pigweed (Amaranthus retroflexus).
Excerpt: as §1

Test [6] deals with velvetleaf (Abutilon theophrasti).
Excerpt: as §1

For test [7], the system named is wheat (Triticum aestivum).
Excerpt: as §1

As for `N=C(c1ccccc1)c1c[nH]nc1-c1cc(Cl)cc(Cl)c1` [Compound 68], the “Plant response rating (0 to 100 scale), Barnyardgrass” value was 0 in test [1] (Postemergence, 1000 g ai/ha) and 0 in test [1] (Preemergence, 1000 g ai/ha). Besides, the “Plant response rating (0 to 100 scale), Corn” value with corn (Zea mays) (Postemergence, 1000 g ai/ha) is recorded as 0; with corn (Zea mays) (Preemergence, 1000 g ai/ha), 0. The “Plant response rating (0 to 100 scale), Foxtail, Giant” value in test [2] (Postemergence, 1000 g ai/ha) is listed as 0; in test [2] (Preemergence, 1000 g ai/ha) it was 0. In addition, the “Plant response rating (0 to 100 scale), Crabgrass, Large” value in test [3] (Postemergence, 1000 g ai/ha) is recorded as 0; in test [3] (Preemergence, 1000 g ai/ha) it was 0. Moreover, the “Plant response rating (0 to 100 scale), Morningglory” value worked out at 0 in test [4] (Postemergence, 1000 g ai/ha) and 0 in test [4] (Preemergence, 1000 g ai/ha). Moreover, the “Plant response rating (0 to 100 scale), Pigweed” value is listed as 100 in test [5] (Postemergence, 1000 g ai/ha) and 100 in test [5] (Preemergence, 1000 g ai/ha). Moreover, the “Plant response rating (0 to 100 scale), Velvetleaf” value is reported as 90 in test [6] (Postemergence, 1000 g ai/ha) and 100 in test [6] (Preemergence, 1000 g ai/ha). In addition, the “Plant response rating (0 to 100 scale), Wheat” value in test [7] (Postemergence, 1000 g ai/ha) is on record as 0; in test [7] (Preemergence, 1000 g ai/ha), 0.
As for `CCn1cc(C(=NNc2ccccc2)c2ccccc2)c(-c2cc(Cl)cc(Cl)c2)n1` [Compound 36], the “Plant response rating (0 to 100 scale), Barnyardgrass” value in test [1] (Postemergence, 125 g ai/ha) was 0; in test [1] (Postemergence, 500 g ai/ha), 0; in test [1] (Preemergence, 500 g ai/ha) it was 0. For the same molecule, in test [1] (Preemergence, 125 g ai/ha), the “Barnyardgrass plant response rating (0 = no effect, 100 = complete control)” value was 0. In addition, the “Plant response rating (0 to 100 scale), Corn” value with corn (Zea mays) (Postemergence, 125 g ai/ha) is 0; in the test on corn (Zea mays) (Postemergence, 500 g ai/ha) it was 0; in the test with corn (Zea mays) (Preemergence, 500 g ai/ha) it was 0. Moreover, the “Corn plant response rating (0 = no effect, 100 = complete control)” value in the test on corn (Zea mays) (Preemergence, 125 g ai/ha) came to 0. For the same molecule, the “Plant response rating (0 to 100 scale), Foxtail, Giant” value came out at 0 in test [2] (Postemergence, 125 g ai/ha); 0 in test [2] (Postemergence, 500 g ai/ha); 0 in test [2] (Preemergence, 500 g ai/ha). Moreover, the “Foxtail, Giant plant response rating (0 = no effect, 100 = complete control)” value in test [2] (Preemergence, 125 g ai/ha) amounted to 0. The “Plant response rating (0 to 100 scale), Crabgrass, Large” value came to 0 in test [3] (Postemergence, 125 g ai/ha); 0 in test [3] (Postemergence, 500 g ai/ha); 0 in test [3] (Preemergence, 500 g ai/ha). Further, in test [3] (Preemergence, 125 g ai/ha), the “Crabgrass, Large plant response rating (0 = no effect, 100 = complete control)” value is on record as 0. The “Plant response rating (0 to 100 scale), Morningglory” value in test [4] (Postemergence, 125 g ai/ha) was 0; in test [4] (Postemergence, 500 g ai/ha), 0; in test [4] (Preemergence, 500 g ai/ha) it was 0. The “Morningglory plant response rating (0 = no effect, 100 = complete control)” value in test [4] (Preemergence, 125 g ai/ha) turned out to be 0. Also, the “Plant response rating (0 to 100 scale), Pigweed” value in test [5] (Postemergence, 125 g ai/ha) is 30; in test [5] (Postemergence, 500 g ai/ha), 80; in test [5] (Preemergence, 500 g ai/ha) it was 70. In addition, the “Pigweed plant response rating (0 = no effect, 100 = complete control)” value in test [5] (Preemergence, 125 g ai/ha) came out at 0. Further, the “Plant response rating (0 to 100 scale), Velvetleaf” value in test [6] (Postemergence, 125 g ai/ha) turned out to be 70; in test [6] (Postemergence, 500 g ai/ha), 90; in test [6] (Preemergence, 500 g ai/ha) it was 20. Moreover, in test [6] (Preemergence, 125 g ai/ha), the “Velvetleaf plant response rating (0 = no effect, 100 = complete control)” value was 20. In addition, the “Plant response rating (0 to 100 scale), Wheat” value in test [7] (Postemergence, 125 g ai/ha) is on record as 0; in test [7] (Postemergence, 500 g ai/ha), 0; in test [7] (Preemergence, 500 g ai/ha) it was 0. Further, the “Wheat plant response rating (0 = no effect, 100 = complete control)” value in test [7] (Preemergence, 125 g ai/ha) is 0.
Take `N#CN=C(c1ccccc1)c1c[nH]nc1-c1cc(Cl)cc(Cl)c1` [Compound 52]: the “Plant response rating (0 to 100 scale), Barnyardgrass” value came out at 0 in test [1] (Postemergence, 1000 g ai/ha) and 0 in test [1] (Preemergence, 1000 g ai/ha). Moreover, the “Plant response rating (0 to 100 scale), Corn” value is 0 in the test on corn (Zea mays) (Postemergence, 1000 g ai/ha) and 0 in the test on corn (Zea mays) (Preemergence, 1000 g ai/ha). The “Plant response rating (0 to 100 scale), Foxtail, Giant” value in test [2] (Postemergence, 1000 g ai/ha) is given as 0; in test [2] (Preemergence, 1000 g ai/ha) it was 0. Besides, the “Plant response rating (0 to 100 scale), Crabgrass, Large” value in test [3] (Postemergence, 1000 g ai/ha) turned out to be 0; in test [3] (Preemergence, 1000 g ai/ha) it was 0. For the same molecule, the “Plant response rating (0 to 100 scale), Morningglory” value amounted to 0 in test [4] (Postemergence, 1000 g ai/ha) and 0 in test [4] (Preemergence, 1000 g ai/ha). The “Plant response rating (0 to 100 scale), Pigweed” value in test [5] (Postemergence, 1000 g ai/ha) was 90; in test [5] (Preemergence, 1000 g ai/ha) it was 50. Moreover, the “Plant response rating (0 to 100 scale), Velvetleaf” value was found to be 100 in test [6] (Postemergence, 1000 g ai/ha) and 60 in test [6] (Preemergence, 1000 g ai/ha). The “Plant response rating (0 to 100 scale), Wheat” value in test [7] (Postemergence, 1000 g ai/ha) came out at 0; in test [7] (Preemergence, 1000 g ai/ha) it was 0.

Source of the values: patent US10167262B2, “Herbicidal substituted 3-arylpyrazoles” (FMC CORPORATION, priority 2014, dated 2019).
